Data published in paper PMC4425616 (Nature medicine, 2015).
Read-outs that look alike come from different tables or passages of the source.

Tests used:
breast cancer cells = test: Growth and Pin1 degradation in breast cancer cells, combinations with ATRA; assay type: cell-based, human
Pin1 [1] = target: T1, Pin1 (Homo sapiens, UniProt Q13526); test: Photoaffinity labeling of Pin1 with [3H]ATRA; assay type: binding; details: SDS gels
cyclophilin = test: Chymotrypsin coupled PPIase activity assay; assay type: biochemical
FKBP12 = FKBP12 (Homo sapiens, UniProt P62942); test: Chymotrypsin coupled PPIase activity assay; assay type: biochemical
Sequence of FKBP12 (P62942 whole entry, species assumed): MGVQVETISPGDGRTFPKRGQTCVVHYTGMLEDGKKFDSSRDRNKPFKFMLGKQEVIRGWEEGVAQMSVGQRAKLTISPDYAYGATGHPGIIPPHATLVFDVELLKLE

Pin1 [2] = target: Pin1 (Mus musculus, UniProt Q9QUR7); test: Pin1 protein, mRNA and half-life in MEFs; assay type: cell-based; details: for Pin1 protein half-life: 50 μM, 24 h, cycloheximide chase
Sequence of Pin1 (Mus musculus, UniProt Q9QUR7) (Q9QUR7 whole entry): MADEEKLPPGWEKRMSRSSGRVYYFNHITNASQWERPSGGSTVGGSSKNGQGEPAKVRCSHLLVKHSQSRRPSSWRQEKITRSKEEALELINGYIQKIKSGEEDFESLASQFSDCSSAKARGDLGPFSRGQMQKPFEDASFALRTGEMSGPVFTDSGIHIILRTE

Pin1 [3] = target: T1, Pin1; assay type: binding; details: incubation 0.5 hour
Pin1 [4] = target: T1, Pin1; details: cited from earlier work
Pin1 [5] = target: T1, Pin1; test: Binding of
[6] = target: FKBP12 (FK506-binding protein 12) (Homo sapiens, UniProt P62942); test: Binding of fluorescently-labeled pTide to FKBP12
Sequence of FKBP12 (FK506-binding protein 12) (P62942 whole entry, species assumed): as the sequence (P62942 whole entry, species assumed) above

Pin1 [7] = target: T1, Pin1; test: Immunoblotting for Pin1 in NB4 cells; assay type: cell-based; details: 72 h
human APL NB4 cells = test: APL cell differentiation; assay type: cell-based; details: 72 h
PML-RARα [8] = test: Immunoblotting for PML-RARα in NB4 cells; assay type: cell-based, human; details: 72 h
Pin1 [9] = target: T1, Pin1; test: Immunostaining of bone marrow of APL patients treated with ATRA; assay type: in vivo
PML-RARα [10] = test: as above; assay type: in vivo, human
HMLE cells = test: Colorimetric MTT assay; assay type: cell-based, human; details: 72 h
MDA-MB-231 cells = test: MDA-MB-231 xenograft in nude mice; assay type: in vivo
MCF10A cells = test: Colorimetric MTT assay; assay type: cell-based, human; details: 72 h
[11] = system: APL cells isolated from hCG-PML-RARα transgenic mice; details: 3 weeks treatment
Pin1 WT MEFs = test: MTT cell growth assay; assay type: cell-based, mouse; details: 72 h
cyclin D1 promoter = test: Cyclin D1 promoter-driven luciferase reporter assay; assay type: cell-based; details: SKBR3 cells, 72 h
NIH 3T3 cells = test: Centrosome amplification induced by Pin1 overexpression; assay type: cell-based; details: 72 h
Pin1 KO MEFs = test: MTT cell growth assay; assay type: cell-based, mouse; details: 72 h, compared with WT MEFs
MDA-MB-468 cells = test: MDA-MB-468 xenograft in nude mice; assay type: in vivo; details: ATRA-releasing pellets
SKBR3 cells = test: Foci formation assay; assay type: cell-based; details: 48 h
[12] = standard doses in human patients; cited from earlier work
[13] = system: Pin1 and its substrate oncogenes and tumor suppressors; assay type: cell-based, human; details: 72 hr
[14] = three ATRA-sensitive cancer cell lines

T1 sequence (Q13526 whole entry): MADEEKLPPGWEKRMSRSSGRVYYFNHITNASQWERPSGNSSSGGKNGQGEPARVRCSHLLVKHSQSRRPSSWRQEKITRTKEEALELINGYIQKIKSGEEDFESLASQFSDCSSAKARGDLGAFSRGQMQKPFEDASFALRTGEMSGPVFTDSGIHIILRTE

Compound: Clc1cccc(C(c2ccc3[nH]cnc3c2)n2ccnc2)c1 (centres unmarked) [liarazole]
- effect in combination with ATRA on cell growth (breast cancer cells): generally additive effects with ATRA

Compound: CC1=C(/C=C/C(C)=C/C=C/C(C)=C/C(=O)O)C(C)(C)CCC1 [[^3H]-ATRA, all-trans-[11,12-3H]retinoic acid]
- Kd (Pin1 [1]): 800 nM

Compound: CC1=C(/C=C/C(C)=C/C=C/C(C)=C\C(=O)O)C(C)(C)CCC1 [13cRA, 13-cis-retinoic acid]
- inhibition of cyclophilin PPIase activity (cyclophilin): neither inhibited
- inhibition of FKBP12 PPIase activity (FKBP12): neither inhibited
- Pin1 protein half-life (Pin1 [2]): reduced Pin1 protein half-life

Compound: CC1=C(/C=C/C(C)=C/C=C/C(C)=C/C(=O)Nc2ccc(O)cc2)C(C)(C)CCC1 [fenretinide]
- Pin1 binding (FP assay) (Pin1 [3]): only marginal Pin1 binding

Compound: Bth-D-phos.Thr-Pip-Nal [pTide]
- Kd (Pin1 [4]): 1.2 nM
- binding of fluorescently-labeled pTide to Pin1 (Pin1 [5]): bound to Pin1
- binding of fluorescently-labeled pTide to FKBP12 [6]: not to FKBP12

Compound: CCOC(=O)CN1C(=O)c2ccc3c4c(ccc(c24)C1=O)C(=O)N(CC(=O)OCC)C3=O [PiB]
- Pin1 abundance (Pin1 [7]): inhibited Pin1 without degrading it
- induction of APL cell differentiation (human APL NB4 cells): neither Pin1 inhibitors nor Pin1 shRNA induced human APL cell differentiation
- PML-RARα abundance (PML-RARα [8]): dose-dependently reduced PML-RARα

Compound: CC1=C(/C=C/C(C)=C/C=C/C(C)=C/C(=O)O)C(C)(C)CCC1 [ATRA, all-trans retinoic acid]
- Pin1 remaining after treatment (Pin1 [9]; 3 days of ATRA treatment): ~ 40%
- Pin1 remaining after treatment (Pin1 [9]; 10 days of ATRA treatment): < 10%
- PML-RARα remaining after treatment (PML-RARα [10]; 3 days of ATRA treatment): ~ 40%
- PML-RARα remaining after treatment (PML-RARα [10]; 10 days of ATRA treatment): < 10%
- inhibition of cyclophilin PPIase activity (cyclophilin): neither inhibited
- cell proliferation, susceptibility to ATRA (HMLE cells): highly resistant to ATRA
- inhibition of FKBP12 PPIase activity (FKBP12): neither inhibited
- antitumor activity (MDA-MB-231 cells; 33.0 μmol/kg intraperitoneally 3 times a week for 8 weeks): only modest antitumor activity
- growth of tumors from MDA-MB-231 cells stably expressing Pin1 (MDA-MB-231 cells; ATRA implants for 7 weeks): effectively inhibited by ATRA in a dose-dependent manner
- abundance of Pin1 and cyclin D1 in tumors (MDA-MB-231 cells; ATRA-releasing pellets): reduced abundance of Pin1 and its substrate cyclin D1
- cell proliferation, susceptibility to ATRA (MCF10A cells): highly resistant to ATRA
- PML-RARα in the bone marrow [11]: effectively reduced PML-RARα in the bone marrow
- Pin1 levels in the bone marrow [11]: reduced Pin1 levels in the bone marrow
- spleen weights [11]: spleen weights nearly at basal levels
- inhibition of growth (Pin1 WT MEFs): Relatively high concentrations of ATRA were required
- inhibition of Pin1-induced activation of the cyclin D1 promoter (cyclin D1 promoter): dose-dependently and fully inhibited
- inhibition of Pin1 overexpression-induced centrosome amplification (NIH 3T3 cells): dose-dependently and fully inhibited
- inhibition of growth (Pin1 KO MEFs): more resistant to ATRA
- abundance of Pin1 and cyclin D1 in tumors (MDA-MB-468 cells): reduced abundance of Pin1 and its substrate cyclin D1
- inhibition of Pin1-enhanced foci formation (SKBR3 cells): dose-dependently and fully inhibited
- drug concentration produced [12]: 1200 nM
- Pin1 protein half-life (Pin1 [2]): reduced Pin1 protein half-life
- Pin1 mRNA levels (Pin1 [2]; 72 h, quantitative RT-PCR): no obvious effects
- Pin1 protein abundance (Pin1 [2]; WT Pin1, 72 h, immunoblotting): dose-dependently down-regulated
- Pin1 binding (FP assay) (Pin1 [3]): most potent
- PML-RARα abundance (PML-RARα [8]): dose-dependently reduced PML-RARα
- effects on Pin1 and substrate proteins ([13]; MCF10A cells): no appreciable effects
- abundance of Pin1 and substrate oncogenes (cyclin D1, HER2, ERα, Akt, NFκB p65, c-Jun, PKM2) [13, 14]: dose-dependent decrease in abundance of Pin1 and its substrate oncogenes
- abundance of Pin1 substrate tumor suppressors (Smad2/3, SMRT) [13, 14]: increase in abundance of Pin1 substrate tumor suppressors

Compound: CC1=C(/C=C/C(C)=C/C=C/C(C)=C/C=O)C(C)(C)CCC1 [retinal]
- Pin1 binding (FP assay) (Pin1 [3]): totally inactive

Compound: O=C(O[C@@H]1Cc2c(O)cc(O)cc2O[C@@H]1c1cc(O)c(O)c(O)c1)c1cc(O)c(O)c(O)c1 [EGCG]
- Pin1 abundance (Pin1 [7]): inhibited Pin1 without degrading it
- PML-RARα in the bone marrow [11]: effectively reduced PML-RARα in the bone marrow
- condition of treated mice [11]: rather sick
- spleen weights [11]: spleen weights nearly at basal levels
- induction of APL cell differentiation (human APL NB4 cells): neither Pin1 inhibitors nor Pin1 shRNA induced human APL cell differentiation
- PML-RARα abundance (PML-RARα [8]): dose-dependently reduced PML-RARα

Compound: CC(=O)OC/C=C(C)/C=C/C=C(C)/C=C/C1=C(C)CCCC1(C)C [retinyl acetate]
- Pin1 binding (FP assay) (Pin1 [3]): totally inactive

Compound: C=C(c1ccc(C(=O)O)cc1)c1cc2c(cc1C)C(C)(C)CCC2(C)C [bexarotene]
- Pin1 binding (FP assay) (Pin1 [3]): only marginal Pin1 binding

Compound: O=C1C=CC(=O)c2c(O)cccc21 [Juglone]
- Pin1 abundance (Pin1 [7]): inhibited Pin1 without degrading it
- PML-RARα in the bone marrow [11]: effectively reduced PML-RARα in the bone marrow
- condition of treated mice [11]: rather sick
- spleen weights [11]: spleen weights nearly at basal levels
- induction of APL cell differentiation (human APL NB4 cells): neither Pin1 inhibitors nor Pin1 shRNA induced human APL cell differentiation
- PML-RARα abundance (PML-RARα [8]): dose-dependently reduced PML-RARα

Compound: CCCCCCCOc1cc2c(cc1/C(C)=C/c1ccc(C(=O)O)cc1)C(C)(C)CCS2(=O)=O [Ro-415253]
- effect on the ability of ATRA to induce Pin1 degradation or inhibit proliferation (breast cancer cells): neither had obvious effects
- Pin1 binding (FP assay) (Pin1 [3]): minimal Pin1 binding

Compound: CC1=C(/C=C/C(C)=C/C=C/C(C)=C/CO)C(C)(C)CCC1 [retinol]
- Pin1 binding (FP assay) (Pin1 [3]): totally inactive
